Assay results from US20240115645A1, “DRUG FOR TREATING UROLITHIASIS-RELATED DISEASE, AND PREPARATION METHOD THEREFOR” (HONG ZHANG, priority 2021, published 2024).

How the values were obtained:
[1] = tested on: SD rats; experiment: Kidney lesions under HE microscope in rat urolithiasis model (1% ethylene glycol + 2% ammonium chloride); assay type: in vivo; parameters: key to Renal tubule dilation lesions / Renal interstitial inflammatory cell infiltration / Calcium oxalate crystal aggregation: No lesion was represented by −; mild lesion was +; lesion was ++; significant lesion was +++; settings: potassium sodium hydrogen citrate group
Excerpt: (§1) II. Experimental example of pharmacological activity • 1. Preparation of test samples • (1) High-dose group test sample: the water-extracted, 0-25% ethanol gradient eluent by polyamide column prepared in Preparation Example 5 was concentrated and dried to obtain the active ingredient extract. A solution with a density of about 1.2 g/ml was formulated, and the concentration of the effective substance measured by the pharmacopoeia standard and the absorbance method (using rutin as a standard substance to make a standard curve) is about 130.4 mg/ml. • (2) Medium-dose group test sample: the high-dose group sample was diluted once to obtain the middle-dose group test sample. • (3) Low-dose group test sample: the middle-dose group sample was dilute once to obtain the low-dose group test sample. • (4) Positive control group test sample: potassium sodium hydrogen citrate aqueous solution with a concentration of 100 mg/ml, 3 ml per day, equivalent to 300 mg/d. • 2. Animal experiments • 2.1. Experimental animals and feeding conditions
36 male SD rats of SPF grade, 6-8 weeks old, 200-250 g. • 2.2.3 Model preparation
SD rats were fed adaptively for 7 days, and all groups (except the normal group) were administered 1% ethylene glycol (by drinking water)+2% ammonium chloride (by intragastric administration) 2 ml/rat to establish a model for 28 consecutive days. • 2.2.4 Experimental grouping and processing
36 male SD rats were randomly divided into 6 groups according to body weight, 6 rats in each group. These are normal group, model group, potassium sodium hydrogen citrate group, traditional Chinese medicine extract (low, medium, high) dose group. During the modeling process, 3 ml of the drug was administered by intragastric administration every day, and the drug included the positive control drug and the purified part through the polyamide column. The animals were euthanized after 4 weeks. • 2.2.5 Kidney
The kidney tissues were peeled off in vivo, the kidney on one side was stored in a cryopreservation tube at −80° C. for tissue homogenate to detect Ca2+ concentration, and the kit operation steps were the same as above; the […] kidney on the other side was fixed in formalin solution for tissue sectioning to perform HE staining. • (1) The steps for making paraffin sections were as follows:
(1) fixation, (2) trimming, (3) dehydration, (4) transparency, (5) wax immersion, (6) embedding, (7) slicing, (8) baking slices, (9) preservation: packed in boxes and stored at room temperature. • (2) HE staining steps were as follows:
(1) dewaxing and rehydration, (2) dyeing, (3) dehydration, transparency, mounting,
(4) staining results: the nucleus was blue, the cytoplasm was pink, and the red blood cells were bright red. • 3. Test results • 3.1. Positive test results for calcium oxalate crystals in rat urine
The results consisted of three parts: calcium oxalate crystal aggregation, renal tubule dilation lesions, and chronic renal interstitial inflammatory cell infiltration.

[2] = tested on: SD rats; experiment: Serum CRE and BUN levels of urolithiasis model rats; assay type: in vivo, rat; settings: all groups, 4 weeks
Excerpt: as §1
(§2) 36 male SD rats of SPF grade, 6-8 weeks old, 200-250 g. • 2.2.3 Model preparation […]

[3] = tested on: SD rats; experiment: Ca2+ concentration in serum, urine and kidney tissue of urolithiasis model rats; assay type: in vivo, rat; settings: potassium sodium hydrogen citrate drug group, 300 mg/d
Excerpt: as §1, §2

[4] = 100 mg/ml, 3 ml per day (300 mg/d) intragastric, 4 weeks

In the case of `O.O=C([O-])CC(O)(CC(=O)[O-])C(=O)O.O=C([O-])CC(O)(CC(=O)[O-])C(=O)O.O=C([O-])CC(O)(CC(=O)[O-])C(=O)O.O=C([O-])CC(O)(CC(=O)[O-])C(=O)[O-].O=C([O-])CC(O)(CC(=O)[O-])C(=O)[O-].[K+].[K+].[K+].[K+].[K+].[K+].[Na+].[Na+].[Na+].[Na+].[Na+].[Na+]` [potassium sodium hydrogen citrate], the “Calcium oxalate crystal aggregation” value [1, 4] is reported as “++”, the “Renal interstitial inflammatory cell infiltration” value [1, 4] is reported as “+” and the “Renal tubule dilation lesions” value [1, 4] is reported as “++”. For the same molecule, the “brownish yellow calcium oxalate crystals under the HE microscope, compared with the model group” value ([1]; 300 mg/d) was “did not decrease significantly”, the “inflammatory cell infiltration in the renal interstitium under the HE microscope” value ([1]; 300 mg/d) was “occasionally seen” and the “renal tubule dilatation under the HE microscope, compared with the model group” value ([1]; 300 mg/d) was “improved”. The “BUN levels in serum, order of groups from high to low” value [2] was “model group>low dose treatment group>potassium sodium hydrogen citrate drug group>medium dose treatment group>high dose treatment group>normal group”, the “CRE levels in serum, order of groups from high to low” value [2] was “model group>medium dose treatment group>potassium sodium hydrogen citrate drug group>low dose treatment group>high dose treatment group>normal group” and the “Ca2+ concentration in kidney tissue, difference compared with the model group and the normal group” value [3] was “very significant difference (P<0.01)”. The “Ca2+ concentration in kidney tissue, rank among groups” value [3] was “highest concentration”.
